Earlier results, collected in US20040142847A1, “Detergent tablets with polyurethane coating” (priority 2002, published 2004).
≈ marks a conversion by molar mass, not a printed value. Like-named read-outs stand apart in the source and are kept apart here.

Assays:
[1] = for amount of the anhydrous salt that dissolves in 100 g of water: per 100 g of water
[2] = 1% strength solution at 25°
[3] = after heating the solution at 100° C. for two hours
[4] = 25° C., listing of preferred solubilizers
[5] = 20° C., listing of preferred solubilizers
[6] = 20° C., listing of suitable solubilizers

Compound: O=C(O)/C=C\C(=O)O [Maleic acid]
- solubility in water [1, 4]: 788 g/L (≈ 6790 mM)

Compound: [Cl-].[K+] [Potassium chloride]
- solubility in water [1, 5]: 340 g/L
- solubility in water [1, 6]: 340 g/L

Compound: Sodium polyphosphate
- solubility in water [1, 6]: 1000 g/L

Compound: O=P([O-])([O-])OP(=O)([O-])[O-].[K+].[K+].[K+].[K+] [Potassium diphosphate]
- pH of the 1% strength solution [2]: 10.4

Compound: O=C(CO)[C@@H](O)[C@H](O)[C@@H](O)CO [L(−)-sorbose]
- solubility in water ([1]; 17° C., listing of preferred solubilizers): 550 g/L (≈ 3050 mM)

Compound: O=C(O)CC(O)C(=O)O (racemic) [DL-Malic acid]
- solubility in water ([1]; 26° C., listing of preferred solubilizers): 1440 g/L (≈ 10700 mM)
- solubility in water ([1]; 26° C., listing of suitable solubilizers): 1440 g/L (≈ 10700 mM)

Compound: [Cl-].[Cs+] [Cesium chloride]
- solubility in water [1, 5]: 1800 g/L
- solubility in water [1, 6]: 1800 g/L

Compound: [Cl-].[Cl-].[Zn+2] [Zinc chloride]
- solubility in water [1, 5]: 3680 g/L
- solubility in water [1, 6]: 3680 g/L

Compound: O=C[C@H](O)[C@@H](O)[C@@H](O)[C@H](O)CO [D(+)-Galactose]
- solubility in water [1, 4]: 680 g/L (≈ 3770 mM)

Compound: O=P([O-])([O-])OP(=O)([O-])OP(=O)([O-])[O-].[Na+].[Na+].[Na+].[Na+].[Na+] [pentasodium triphosphate]
- amount of the anhydrous salt that dissolves in 100 g of water ([1]; 60°): about 20 g
- amount of the anhydrous salt that dissolves in 100 g of water ([1]; 100°): around 32 g
- amount of the anhydrous salt that dissolves in 100 g of water ([1]; room temperature): About 17 g
- diphosphate produced by hydrolysis [3]: ~15%
- orthophosphate produced by hydrolysis [3]: about 8%

Compound: NC(N)=O [Urea]
- solubility in water [1, 5]: 1080 g/L (≈ 18000 mM)
- solubility in water [1, 6]: 1080 g/L (≈ 18000 mM)
